Square brackets hold non-standard residues; d marks the D form. Peptide text beside a SMILES is read from it. * marks the point of attachment. Ala(1H-tetrazol-5-yl) = N[C@@H](Cc1nnn[nH]1)C(=O)O; Ms = CS(=O)(=O)*

The first series is described as follows: Peptide stability test, Tris buffer (pH 7.0), 60° C. storage, HPLC remaining rate. To be noted: Table 7-2; 100 μM in Tris buffer pH 7.0. The series is classed as physicochemical. As for the experimental part:
Peptides 1, 2 and 6 to 9 synthesized in Example 2 were weighed and dissolved in Tris buffer (pH 7.0) to prepare 1.0 mM peptide solutions. Each solution was filtered with a Chromatdisk (product of Merck Millipore, Millex-GV, 0.22 μm). The filtrate was diluted to 100 μM with Tris buffer (pH 7.0) and dispensed into a tube (Protein LoBind Tube by Eppendorf Co.). The prepared peptide solutions were incubated for 1 week or 2 weeks in a 60° C. thermostatic bath to obtain stored samples. A simultaneously prepared sample among the peptide solutions that was not stored was used as a standard sample (initial sample). The standard sample and the stored samples were stored at −30° C. until sample analysis. Each stored sample was measured under the following HPLC analysis conditions 2, and the remaining rate after correction for water for each peptide among the stored samples was calculated in the same manner as Example 3. Guard column: XSelect CSH C18 by Waters Co., 5 μm, 4.6×20 mm Guard Cartridge Detection wavelength: 220 nm Mobile phase A: 0.1% formic acid aqueous solution Mobile phase B: 0.1% acetonitrile formate solution Measuring time: 20 minutes Measuring sample injection rate: 50 μL Flow rate: 1.0 mL/min Column temperature: 40° C. Sample cooler: 25° C. Mobile phase delivery: The mixing ratio of mobile phase A and mobile phase B was varied as shown in Table 5 for linear concentration gradient control. Peptides 12 to 25, 27 and 28 synthesized in Example 2 were weighed and dissolved in Tris buffer (pH 7.0) to prepare 1.0 mM peptide solutions. Each solution was filtered with a Chromatdisk (product of Merck Millipore, Millex-GV, 0.22 μm). The filtrate was diluted to 100 μM with Tris buffer (pH 7.0) and dispensed into a tube (Protein LoBind Tube by Eppendorf Co.). The prepared peptide solutions were incubated for one week or 2 weeks in a 60° C. thermostatic bath to obtain stored samples. A simultaneously prepared sample among the peptide solutions that was not stored was used as a standard sample (initial sample). The standard sample and the stored samples were stored at −30° C. until sample analysis. The remaining rate after correction for water for each peptide among the stored samples was calculated in the same manner as Example 4, and the results are shown in Table 7. Peptides 29 to 34 synthesized in Example 2 were weighed and dissolved in Tris buffer (pH 7.0) to prepare 1.0 mM peptide solutions. Each solution was filtered with a Chromatdisk (product of Merck Millipore, Millex-GV, 0.22 μm). The filtrate was diluted to 100 μM with Tris buffer (pH 7.0) and dispensed into a tube (Protein LoBind Tube by Eppendorf Co.). The prepared peptide solutions were incubated for 2 weeks in a 60° C. thermostatic bath to obtain stored samples. A simultaneously prepared sample among the peptide solutions that was not stored was used as a standard sample (initial sample). The standard sample and the stored samples were stored at −30° C. until sample analysis. The remaining rate after correction for water for each peptide among the stored samples was calculated in the same manner as Example 4, and the results are shown in Table 7-2. Peptide 26 synthesized in Example 2 was weighed and dissolved in Tris buffer (pH 7.0) to prepare a 1.0 mM peptide solution. The solution was filtered with a Chromatdisk (product of Merck Millipore, Millex-GV, 0.22 μm). The filtrate was diluted to 100 μM with Tris buffer (pH 7.0) and dispensed into a tube (Protein LoBind Tube by Eppendorf Co.). The prepared peptide solution was incubated for one week or 2 weeks in a 60° C. thermostatic bath to obtain stored samples. A simultaneously prepared sample among the peptide solutions that was not stored was used as a standard sample (initial sample). The standard sample and the stored sample were stored at −30° C. until sample analysis. […]
On to `CC[C@H](C)[C@H](NC(=O)[C@H](C)NC(=O)[C@H](Cc1nnn[nH]1)NC(=O)[C@H](C)NC(=O)[C@H](Cc1c[nH]cn1)NC(C)=O)C(=O)N[C@@H](Cc1ccccc1)C(=O)N[C@H](C(=O)N[C@@H](Cc1nnn[nH]1)C(=O)N[C@@H](CO)C(=O)N[C@@H](Cc1ccc(O)cc1)C(=O)N[C@@H](CO)C(=O)N[C@@H](CCCNC(=N)N)C(=O)N[C@@H](Cc1ccc(O)cc1)C(=O)N[C@@H](CCCNC(=N)N)C(=O)N[C@@H](CCCCN)C(=O)N[C@@H](CCC(N)=O)C(=O)N[C@@H](C)C(=O)N[C@@H](C)C(=O)N[C@H](C(=O)N[C@@H](CCCCN)C(=O)N[C@@H](CCCCN)C(=O)N[C@@H](Cc1ccc(O)cc1)C(=O)N[C@@H](CC(C)C)C(=O)N[C@@H](C)C(=O)N[C@@H](C)C(=O)N[C@H](C(=O)N[C@@H](CC(C)C)C(N)=O)C(C)C)C(C)C)[C@@H](C)O` [Peptide 33] (Ac-HA[Ala(1H-tetrazol-5-yl)]AIFT[Ala(1H-tetrazol-5-yl)]SYSRYRKQAAVKKYLAAVL-NH2), for which the “remaining rate after correction for water, 60° C., 2 weeks preservation” value (“remaining rate … 2 weeks preservation” below) amounted to 85.3%. Same read-out and setting: next, `CC[C@H](C)[C@H](NC(=O)CNC(=O)[C@H](Cc1nnn[nH]1)NC(=O)[C@H](CO)NC(=O)[C@H](Cc1c[nH]cn1)NS(C)(=O)=O)C(=O)N[C@@H](Cc1ccccc1)C(=O)N[C@H](C(=O)N[C@@H](Cc1nnn[nH]1)C(=O)N[C@@H](C)C(=O)N[C@@H](Cc1ccc(O)cc1)C(=O)N[C@@H](CO)C(=O)N[C@@H](CCCNC(=N)N)C(=O)N[C@@H](Cc1ccc(O)cc1)C(=O)N[C@@H](CCCNC(=N)N)C(=O)N[C@@H](CCCCN)C(=O)N[C@@H](CCC(N)=O)C(=O)N[C@@H](CC(C)C)C(=O)N[C@@H](C)C(=O)N[C@H](C(=O)N[C@@H](CCCCN)C(=O)N[C@@H](CCCCN)C(=O)N[C@@H](Cc1ccc(O)cc1)C(=O)N[C@@H](CC(C)C)C(=O)N[C@@H](C)C(=O)N[C@@H](C)C(=O)N[C@H](C(=O)N[C@@H](CC(C)C)C(N)=O)C(C)C)C(C)C)[C@@H](C)O` [Peptide 29] (Ms-HS[Ala(1H-tetrazol-5-yl)]GIFT[Ala(1H-tetrazol-5-yl)]AYSRYRKQLAVKKYLAAVL-NH2): 91.9%.

Still in this series, the particulars now being: Table 7; 100 μM in Tris buffer pH 7.0.
Consider `CC[C@H](C)[C@H](NC(=O)CNC(=O)[C@H](Cc1nnn[nH]1)NC(=O)[C@H](CO)NC(=O)[C@H](Cc1c[nH]cn1)NC(C)=O)C(=O)N[C@@H](Cc1ccccc1)C(=O)N[C@H](C(=O)N[C@@H](Cc1nnn[nH]1)C(=O)N[C@@H](CO)C(=O)N[C@@H](Cc1ccc(O)cc1)C(=O)N[C@@H](C)C(=O)N[C@@H](CCCNC(=N)N)C(=O)N[C@@H](Cc1ccc(O)cc1)C(=O)N[C@@H](CCCNC(=N)N)C(=O)N[C@@H](CCCCN)C(=O)N[C@@H](CCC(N)=O)C(=O)N[C@@H](CC(C)C)C(=O)N[C@@H](C)C(=O)N[C@H](C(=O)N[C@@H](CCCCN)C(=O)N[C@@H](CCCCN)C(=O)N[C@@H](Cc1ccc(O)cc1)C(=O)N[C@@H](CC(C)C)C(=O)N[C@@H](C)C(=O)N[C@@H](C)C(=O)N[C@H](C(=O)N[C@@H](CC(C)C)C(N)=O)C(C)C)C(C)C)[C@@H](C)O` [Peptide 16] (Ac-HS[Ala(1H-tetrazol-5-yl)]GIFT[Ala(1H-tetrazol-5-yl)]SYARYRKQLAVKKYLAAVL-NH2), for which the “remaining rate after correction for water, 60° C., 1 week preservation” value is reported as 98.1% and the “remaining rate … 2 weeks preservation” value was 93.5%. In the same order, the values of `CC[C@H](C)[C@H](NC(=O)CNC(=O)[C@H](Cc1nnn[nH]1)NC(=O)[C@H](CO)NC(=O)[C@H](Cc1c[nH]cn1)NC(C)=O)C(=O)N[C@@H](Cc1ccccc1)C(=O)N[C@H](C(=O)N[C@@H](Cc1nnn[nH]1)C(=O)N[C@@H](CO)C(=O)N[C@@H](Cc1ccc(O)cc1)C(=O)N[C@@H](CO)C(=O)N[C@@H](CCCNC(=N)N)C(=O)N[C@@H](Cc1ccc(O)cc1)C(=O)N[C@@H](CCCNC(=N)N)C(=O)N[C@@H](CCCCN)C(=O)N[C@@H](C)C(=O)N[C@@H](CC(C)C)C(=O)N[C@@H](C)C(=O)N[C@H](C(=O)N[C@@H](CCCCN)C(=O)N[C@@H](CCCCN)C(=O)N[C@@H](Cc1ccc(O)cc1)C(=O)N[C@@H](CC(C)C)C(=O)N[C@@H](C)C(=O)N[C@@H](C)C(=O)N[C@H](C(=O)N[C@@H](CC(C)C)C(N)=O)C(C)C)C(C)C)[C@@H](C)O` [Peptide 17] (Ac-HS[Ala(1H-tetrazol-5-yl)]GIFT[Ala(1H-tetrazol-5-yl)]SYSRYRKALAVKKYLAAVL-NH2) are 97.8% and 93.4%. In the same order, the values of `CC[C@H](C)[C@H](NC(=O)CNC(=O)[C@H](Cc1nnn[nH]1)NC(=O)[C@H](CO)NC(=O)[C@H](Cc1c[nH]cn1)NC(C)=O)C(=O)N[C@@H](Cc1ccccc1)C(=O)N[C@H](C(=O)N[C@@H](Cc1nnn[nH]1)C(=O)N[C@@H](CO)C(=O)N[C@@H](Cc1ccc(O)cc1)C(=O)N[C@@H](CO)C(=O)N[C@@H](CCCNC(=N)N)C(=O)N[C@@H](Cc1ccc(O)cc1)C(=O)N[C@@H](CCCNC(=N)N)C(=O)N[C@@H](CCCNC(=N)N)C(=O)N[C@@H](CCC(N)=O)C(=O)N[C@@H](CC(C)C)C(=O)N[C@@H](C)C(=O)N[C@H](C(=O)N[C@@H](CCCNC(=N)N)C(=O)N[C@@H](CCCNC(=N)N)C(=O)N[C@@H](Cc1ccc(O)cc1)C(=O)N[C@@H](CC(C)C)C(=O)N[C@@H](C)C(=O)N[C@@H](C)C(=O)N[C@H](C(=O)N[C@@H](CC(C)C)C(N)=O)C(C)C)C(C)C)[C@@H](C)O` [Peptide 21] (Ac-HS[Ala(1H-tetrazol-5-yl)]GIFT[Ala(1H-tetrazol-5-yl)]SYSRYRRQLAVRRYLAAVL-NH2) are 97.8% and 93.5%. In the case of `CC[C@H](C)[C@H](NC(=O)CNC(=O)[C@H](Cc1nnn[nH]1)NC(=O)[C@H](C)NC(=O)[C@H](Cc1c[nH]cn1)NC(C)=O)C(=O)N[C@@H](Cc1ccccc1)C(=O)N[C@H](C(=O)N[C@@H](Cc1nnn[nH]1)C(=O)N[C@@H](C)C(=O)N[C@@H](Cc1ccc(O)cc1)C(=O)N[C@@H](CO)C(=O)N[C@@H](CCCNC(=N)N)C(=O)N[C@@H](Cc1ccc(O)cc1)C(=O)N[C@@H](CCCNC(=N)N)C(=O)N[C@@H](CCCCN)C(=O)N[C@@H](CCC(N)=O)C(=O)N[C@@H](CC(C)C)C(=O)N[C@@H](C)C(=O)N[C@H](C(=O)N[C@@H](CCCCN)C(=O)N[C@@H](CCCCN)C(=O)N[C@@H](Cc1ccc(O)cc1)C(=O)N[C@@H](CC(C)C)C(=O)N[C@@H](C)C(=O)N[C@@H](C)C(=O)N[C@H](C(=O)N[C@@H](CC(C)C)C(N)=O)C(C)C)C(C)C)[C@@H](C)O` [Peptide 24] (Ac-HA[Ala(1H-tetrazol-5-yl)]GIFT[Ala(1H-tetrazol-5-yl)]AYSRYRKQLAVKKYLAAVL-NH2), the “remaining rate after correction for water, 60° C., 1 week preservation” value is given as 98.1% and the “remaining rate … 2 weeks preservation” value is given as 94.3%. In the same order, the values of `CC[C@H](C)[C@H](NC(=O)CNC(=O)[C@H](Cc1nnn[nH]1)NC(=O)[C@H](CO)NC(=O)[C@H](Cc1c[nH]cn1)NC(C)=O)C(=O)N[C@@H](Cc1ccccc1)C(=O)N[C@H](C(=O)N[C@@H](Cc1nnn[nH]1)C(=O)N[C@@H](CO)C(=O)N[C@@H](Cc1ccc(O)cc1)C(=O)N[C@@H](CO)C(=O)N[C@@H](CCCNC(=N)N)C(=O)N[C@@H](Cc1ccc(O)cc1)C(=O)N[C@@H](CCCNC(=N)N)C(=O)N[C@@H](CCCCN)C(=O)N[C@@H](C)C(=O)N[C@@H](C)C(=O)N[C@@H](C)C(=O)N[C@H](C(=O)N[C@@H](CCCCN)C(=O)N[C@@H](CCCCN)C(=O)N[C@@H](Cc1ccc(O)cc1)C(=O)N[C@@H](CC(C)C)C(=O)N[C@@H](C)C(=O)N[C@@H](C)C(=O)N[C@H](C(=O)N[C@@H](CC(C)C)C(N)=O)C(C)C)C(C)C)[C@@H](C)O` [Peptide 28] (Ac-HS[Ala(1H-tetrazol-5-yl)]GIFT[Ala(1H-tetrazol-5-yl)]SYSRYRKAAAVKKYLAAVL-NH2) are 94.6% and 90.5%.

Source of the values: US20220202905A1, “COMPOSITION FOR PREVENTING OR TREATING NEUROTROPHIC KERATITIS WHICH CONTAINS PACAP PEPTIDE OR STABILIZED PACAP PEPTIDE” (SENJU PHARMACEUTICAL CO., LTD., priority 2019, published 2022).
